The values below come from patent US7253177B2, “Synthesis and antimalarial activity of pyrrolo[3,2-f]quinazoline-1,3-diamine derivatives” (United States of America as Represented by the Secretary of …, priority 2004, dated 2007).

Converted amounts (≈) assume the structure as drawn. Where two headings read alike, the source gives them in different places.

For series [1] the following is noted: mice; cited from earlier work.
Series [2] can be described thus: Death rates after single intragastric treatment in rats. The note with it: for Day of Death: number of deaths: rats. The series is classed as in vivo.
For another series, the system named is Plasmodium berghei. Put plainly: Antimalarial activity against Plasmodium berghei in mice by subcutaneous injection. The series is classed as in vivo.
The test system of series [3] is Plasmodium falciparum RCS (Isolates from Brazil). Put plainly: In vitro antimalarial study, [3H]hypoxanthine uptake, RCS clone. It is filed as cell-based. Conditions: P. falciparum RCS clone. The method, then:
(§1) B. Antimalarial Activities: (a). In Vitro Antimalarial Studies. The in vitro assays were conducted by using a modification of the semiautomated microdilution technique of Desjardins et al and Chulay et al.. Four P. falciparum malaria parasite clones, from CDC Indochina III (W-2), CDC Sierra Leone I (D-6), Southeast Asia Isolates (TM91C235) and RCS (Isolates from Brazil) were utilized in susceptibility testing. They were derived by direct visualization and micromanipulation from patient isolates. The W-2 clone is susceptible to mefloquine but resistant to chloroquine, sulfadoxine, pyrimethamine, and quinine, whereas the D-6 clone is naturally resistant to mefloquine but susceptible to chloroquine, sulfadoxine, pyrimethamine and quinine. Test compounds were initially dissolved in DMSO and diluted 400 fold in RPMI 1640 culture medium supplemented with 25 mM Hepes, 32 mM NaHCO3 and 10% Albumax I (Gibco BRL, Grand Island, N.Y.). These solutions were subsequently serially diluted two-fold with a Biomek 1000 (Beckman, Fullerton, Calif.) over 11 different concentrations. The parasites were exposed to serial dilutions of each compound for 48 hrs and incubated at 37° C. with 5% O2, 5% CO2 and 90% N2 prior to the addition of [^3H]hypoxanthine. After a further incubation of 18 hrs, parasite DNA was harvested from each microtiter well using Packard Filtermate 196 Harvester (Meriden, Conn.) onto glass filters. Uptake of [^3H]hypoxanthine was measured with a Packard Topcount Scintillation. Concentration-response data were analyzed by a non-linear regression logistic dose response model and the IC50 values (50% inhibitory concentrations) for each compound were calculated. (Table 3). (b). In Vivo Antimalarial Studies against P. berghei in mice: The in vivo efficacy of the artelinic acid analogs were determined in a modified Thompson test. This test measures the survivability of mice and parasitemia clearance following administration of drug on days 3-5 post infection. In brief, 5×10^6 P. berghei-infected erythrocytes (KBG-173 strain) were inoculated intraperitoneally to female mice that weighed 24-30 g. By day three post-infection, parasitemia ranged from 1.0-3.7%. Each drug, dissolved in 5% sodium bicarbonate, was administered PO twice daily from day 3-5 post-infection. Total doses for each drug ranged from 1.5-384 mg/kg with 8 mice included in each dosage group. The percent suppression of parasitemia in the treated mice compared to the untreated controls was determined for each test compound; the SD-50 (fifty percent suppression dose) and SD-90 were determined from a non-linear regression logistic dose response fit at day 6 parasitemia data. Survival of mice to day 60 post-infection was considered a cure (C). Compounds were considered active (A) when the survival time of the treated mice was greater than twice the control mice, i.e., 12-14 day (Table 4-5). (c). Sporozoite Induced Test Each compound is ground with a mortar & pestle and suspended in 0.5% hydroxyethylcellulose—0.1% Tween 80 for compounds to be administered PO and those given SC are suspended in peanut oil. Each compound is prepared at 3 different dose levels as requested by WRAIR. Compounds are administered either PO or SC to mice once 4 hr before inoculation of sporozoites. Four-week-old male CD-1 mice, purchased from Charles River and weighing 16-17 g, are placed 5 per cage and allowed to acclimate for 4 days before being treated and then inoculated with sporozoites. They are fed food and water ad-lib and maintained at 76° F. with 12 hr light and 12 hr darkness. The cages and water bottles are changed biweekly. The mice are weighed on Days 0, 3 and 6 then biweekly when blood films are taken. Plasmodium yoelii (17×) is used to infect mice that will be used to infect the mosquitoes. Mice are given a single dose of test compound 4 hr before being inoculated intraperitoneally with 2.5×10^5 sporozoites of Plasmodium yoelii on Day 0. […]

Series [4] relates to Plasmodium berghei (KBG-173 strain). It is filed as in vivo. The note with it: mice, oral. The method, then:
as §1

A short description of series [5]: Solubility in common organic solvents and water. It is filed as physicochemical.
Another series concerns P. falciparum. The note with it: background, reported; cited from earlier work.
For series [6] the following is noted: Aotus monkey; cited from earlier work.
Another series has as its system P. berghei. Conditions: rodent model; cited from earlier work.
For series [7], the system named is Plasmodium falciparum D-6 clone (CDC Sierra Leone I). Put plainly: In vitro antimalarial study, [3H]hypoxanthine uptake, D-6 clone. The note with it: for IC50: Plasmodium falciparum, read-out: IC50 D-6; for IC50 D-6: P. falciparum D-6 clone. It is filed as cell-based. The method, then: as §1
Series [8] has as its system Plasmodium falciparum TM91C235 (Southeast Asia Isolates). In words: In vitro antimalarial study, [3H]hypoxanthine uptake, TM91C235 clone. The series is classed as cell-based. Conditions: for IC50 TM91C235: P. falciparum TM91C235 clone. The method, then:
as §1

For series [9], the system named is Plasmodium falciparum W-2 clone (CDC Indochina III). Put plainly: In vitro antimalarial study, [3H]hypoxanthine uptake, W-2 clone. It is filed as cell-based. Conditions: for IC50: Plasmodium falciparum, read-out: IC50 W-2; for IC50 W-2: P. falciparum W-2 clone. The method, then:
as §1

In series [10] the test system is D-6, RCS, W-2 and TM91C235 clones of Plasmodium falciparum. Put plainly: In vitro tests against D-6, RCS, W-2 and TM91C235 clones. Conditions: sensitive and drug resistant P. falciparum cell lines. It is filed as cell-based. The method, then: B. Antimalarial Activities: (a). In Vitro Antimalarial Studies. The in vitro assays were conducted by using a modification of the semiautomated microdilution technique of Desjardins et al and Chulay et al.. Four P. falciparum malaria parasite clones, from CDC Indochina III (W-2), CDC Sierra Leone I (D-6), Southeast Asia Isolates (TM91C235) and RCS (Isolates from Brazil) were utilized in susceptibility testing. They were derived by direct visualization and micromanipulation from patient isolates. […] Uptake of [^3H]hypoxanthine was measured with a Packard Topcount Scintillation. Concentration-response data were analyzed by a non-linear regression logistic dose response model and the IC50 values (50% inhibitory concentrations) for each compound were calculated. […] In Vivo Antimalarial Studies against P. berghei in mice: The in vivo efficacy of the artelinic acid analogs were determined in a modified Thompson test. […] The percent suppression of parasitemia in the treated mice compared to the untreated controls was determined for each test compound; the SD-50 (fifty percent suppression dose) and SD-90 were determined from a non-linear regression logistic dose response fit at day 6 parasitemia data. […]

On to `Nc1nc(N)c2c(ccc3c2ccn3Cc2ccccc2C(F)(F)F)n1` [Compound 1, 7-[(2-Trifluoromethyl-phenyl)methyl]-7H-pyrrolo[3,2-f]quinazoline-1,3-diamine, reference compound], for which the “subcutaneous LD50” value in series [1] is recorded as “less than 20 mg/kg”. Besides, the Deaths in series [2] (rats n=4, single intragastric 25 mg/kg in 1% CMC suspension) is recorded as 0/4; in series [2] (rats n=4, single intragastric 50 mg/kg in 1% CMC suspension) it was 0/4; in series [2] (rats n=4, single intragastric 100 mg/kg in 1% CMC suspension), 0/4; in series [2] (rats n=4, single intragastric 200 mg/kg in 1% CMC suspension) it was 1/4; in series [2] (rats n=4, single intragastric 400 mg/kg in 1% CMC suspension) it was 3/4. The “Day of Death: number of deaths” value in series [2] (200 mg/kg, fourth cell after Deaths (day uncertain)) came out at 1; in series [2] (400 mg/kg, second cell after Deaths (day uncertain)) it was 1; in [2] (400 mg/kg, third cell after Deaths (day uncertain)), 2. Also, the entries for the “# Mice Alive Day 31/Total” value in the series with Plasmodium berghei (20 mg/kg/day), with Plasmodium berghei (40 mg/kg/day) and with Plasmodium berghei (10-2.5 mg/kg/day) were 5/7, 0/7 and 7/7, respectively. The figures for the “# Mice Dead/Day Died” value (in the series with Plasmodium berghei (10-2.5 mg/kg/day); in [4] (40 mg/kg/day); in [4] (20-1.25 mg/kg/day)) were “none”, 1/17 and “none”, respectively. Moreover, the half-maximal inhibitory concentration (IC50) in [3] (Plasmodium falciparum) is 0.357 ng/mL (≈ 0.999 nM); in series [7], 0.0191 ng/mL (≈ 0.0535 nM); in series [8] (Plasmodium falciparum, read-out: IC50 TM91C235), 1.22 ng/mL (≈ 3.41 nM); in series [9] it was 0.445 ng/mL (≈ 1.25 nM). The “# Mice Alive Day 30/Total” value is on record as 4/5 in [4] (40 mg/kg/day) and 5/5 in series [4] (20-1.25 mg/kg/day). For the same compound, the solubility entry in [5] is reported as “sparingly soluble”. In addition, the “IC50 against P. falciparum in vitro” value in the series on P. falciparum was about 0.01 ng/mL (≈ 0.028 nM). In addition, in series [6], the “dose producing deaths / oral lethal dose” value is reported as “less than 2 mg/kg”. The “100% curative oral dose against P. berghei” value in the series with P. berghei was under 0.1 to 4 mg/kg.
Take `CCOC(=O)Nc1nc(N)nc2ccc3c(ccn3Cc3ccccc3C(F)(F)F)c12` [Compound 2a]: the “# Mice Alive Day 31/Total” value with Plasmodium berghei (40 mg/kg/day) is 5/7; in the series with Plasmodium berghei (20-2.5 mg/kg/day) it was 7/7. Moreover, the “# Mice Dead/Day Died” value in the series with Plasmodium berghei (40 mg/kg/day) was 2/17; in the series with Plasmodium berghei (20-2.5 mg/kg/day), “none”; in series [4] (40-2.5 mg/kg/day), “Death in each dose”. The “IC50 RCS” value in series [3] is listed as over 250 ng/mL. The “IC50 D-6” value in series [7] stood at 20.709 ng/mL (≈ 48.2 nM). Besides, the “IC50 TM91C235” value in series [8] is given as over 250 ng/mL. For the same compound, the “IC50 W-2” value in series [9] is given as over 250 ng/mL.
On to `CC(C)(C)OC(=O)N(C(=O)OC(C)(C)C)c1nc(N)nc2ccc3c(ccn3Cc3ccccc3C(F)(F)F)c12` [Compound 2h], for which, in the series on Plasmodium berghei (40-2.5 mg/kg/day), the “# Mice Alive Day 31/Total” value is reported as 7/7 and the “# Mice Dead/Day Died” value was “none”. Besides, the “IC50 RCS” value in [3] is on record as 5.2370 ng/mL (≈ 9.39 nM). In addition, the “# Mice Alive Day 30/Total” value in series [4] (1.25 mg/kg/day) is 2/5. In series [4] (80-2.5 mg/kg/day), the “# Mice Alive Day 30/Total” value is 5/5 and the “# Mice Dead/Day Died” value is listed as “None”. For the same compound, in [7], the “IC50 D-6” value was 0.2549 ng/mL (≈ 0.457 nM). The “IC50 TM91C235” value in series [8] came out at 26.366 ng/mL (≈ 47.3 nM). The “IC50 W-2” value in series [9] came out at 3.6678 ng/mL (≈ 6.58 nM).
In the case of `CCN(CC)c1nc(N(CC)CC)c2c(ccc3c2ccn3Cc2ccccc2C(F)(F)F)n1` [Compound 5, 1,3-bis-(diethylamino)-7-(2-trifluromethyl)benzyl-7H-pyrrolo[3,2-f]quinazoline], in series [4] (Thompson test), the “oral dose range giving 100% cure against P. berghei” value is 10 to 80 mg/kg. The “# Mice Alive Day 30/Total” value was 4/8 in series [4] (160 mg/kg/day) and 8/8 in [4] (80-10 mg/kg/day). Moreover, the “# Mice Dead/Day Died” value in [4] (80-10 mg/kg/day) was “none”. For the same compound, the values for the IC50 in [7] and in series [9] were 46 ng/mL (≈ 98 nM) and 104 ng/mL (≈ 222 nM), respectively. Further, the “in vitro activity relative to lead compound 1” value in series [10] is listed as “over ten thousand fold less active”.

For orientation: IC50 means the concentration that inhibits the measured activity by half.
